The target in series [1] is T1, Serine/threonine-protein kinase PAK 1 (Homo sapiens, UniProt Q13153). The series can be described thus: Inhibition of PAK1 in human EBC1 cells assessed as inhibition of MEK phosphorylation at S298. The series is classed as cell-based.
For a further series, the target named is T2, Aurora kinase A (Homo sapiens, UniProt O14965).
T2 sequence (O14965 whole entry): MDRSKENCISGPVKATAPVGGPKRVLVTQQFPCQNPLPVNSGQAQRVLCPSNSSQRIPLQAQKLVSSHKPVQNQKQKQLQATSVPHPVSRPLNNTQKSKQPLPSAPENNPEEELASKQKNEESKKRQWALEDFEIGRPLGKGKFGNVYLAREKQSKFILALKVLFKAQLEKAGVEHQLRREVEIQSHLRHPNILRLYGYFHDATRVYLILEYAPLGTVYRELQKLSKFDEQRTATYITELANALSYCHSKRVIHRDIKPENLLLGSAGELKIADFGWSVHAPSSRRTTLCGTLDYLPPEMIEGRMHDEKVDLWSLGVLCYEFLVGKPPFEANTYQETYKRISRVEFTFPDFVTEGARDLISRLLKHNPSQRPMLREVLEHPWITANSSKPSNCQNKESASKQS
The experiment in a line: Inhibition of Aurora A (unknown origin).

Series [2] addresses CDK2/Cyclin A2 (Homo sapiens) (UniProt P24941+P20248). The series can be described thus: Inhibition of recombinant human CDK2/cyclin A at 1 uM relative to control. The class given is protein-complex assay.
For series [3], the target named is T1, Serine/threonine-protein kinase PAK 1. The experiment in a line: Inhibition of PAK1 (unknown origin).
In the next series the test system is Mus musculus. The experiment in a line: (§1) AUC in mouse at 25 mg/kg, po. The conditions noted are these: in vivo, BLD = below limit of detection. The series is classed as ADME, organism-based.
In series [4] the target is Protein kinase C theta type (Homo sapiens) (UniProt Q04759). The series can be described thus: Inhibition of recombinant human PKCtheta at 1 uM relative to control.
Protein kinase C theta type (Homo sapiens), sequence (Q04759 whole entry, looked up): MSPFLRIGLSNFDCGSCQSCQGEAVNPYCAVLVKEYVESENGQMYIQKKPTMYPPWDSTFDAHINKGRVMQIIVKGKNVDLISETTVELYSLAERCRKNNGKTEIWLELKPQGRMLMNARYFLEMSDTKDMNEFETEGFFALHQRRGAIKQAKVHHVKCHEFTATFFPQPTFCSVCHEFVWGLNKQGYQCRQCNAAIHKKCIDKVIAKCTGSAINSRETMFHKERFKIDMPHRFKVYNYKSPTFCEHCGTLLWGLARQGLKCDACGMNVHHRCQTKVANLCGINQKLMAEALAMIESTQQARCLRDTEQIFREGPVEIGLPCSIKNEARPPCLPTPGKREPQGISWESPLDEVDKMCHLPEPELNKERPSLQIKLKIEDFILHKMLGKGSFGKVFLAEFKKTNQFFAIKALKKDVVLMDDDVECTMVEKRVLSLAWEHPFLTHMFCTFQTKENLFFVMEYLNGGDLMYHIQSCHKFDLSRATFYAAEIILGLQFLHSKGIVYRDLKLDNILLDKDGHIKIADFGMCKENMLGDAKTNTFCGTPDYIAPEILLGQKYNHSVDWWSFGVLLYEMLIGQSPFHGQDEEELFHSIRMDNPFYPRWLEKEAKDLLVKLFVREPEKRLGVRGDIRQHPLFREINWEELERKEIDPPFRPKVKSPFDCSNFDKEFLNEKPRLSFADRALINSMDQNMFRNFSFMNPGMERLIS
In series [5] the target is T3, Serine/threonine-protein kinase PAK 4 (Homo sapiens, UniProt O96013). The series can be described thus: Inhibition of PAK4 (unknown origin).
Target sequence in this assay (O96013 whole entry): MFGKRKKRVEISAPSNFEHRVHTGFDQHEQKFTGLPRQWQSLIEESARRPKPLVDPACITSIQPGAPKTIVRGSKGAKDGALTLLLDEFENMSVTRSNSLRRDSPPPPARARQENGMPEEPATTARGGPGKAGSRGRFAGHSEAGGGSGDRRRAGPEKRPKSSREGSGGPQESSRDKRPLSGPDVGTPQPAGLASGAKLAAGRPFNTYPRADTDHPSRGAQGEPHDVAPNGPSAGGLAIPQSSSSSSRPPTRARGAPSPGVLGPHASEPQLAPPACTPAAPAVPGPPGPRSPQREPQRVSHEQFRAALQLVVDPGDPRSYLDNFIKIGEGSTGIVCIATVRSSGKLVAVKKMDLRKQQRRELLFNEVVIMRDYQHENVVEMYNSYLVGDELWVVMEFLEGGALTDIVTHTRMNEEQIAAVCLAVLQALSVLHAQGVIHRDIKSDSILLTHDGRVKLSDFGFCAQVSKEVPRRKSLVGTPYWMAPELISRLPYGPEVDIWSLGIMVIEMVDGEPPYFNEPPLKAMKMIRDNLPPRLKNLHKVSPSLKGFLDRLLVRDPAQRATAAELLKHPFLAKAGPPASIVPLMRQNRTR
Series [6] in a line: Oral bioavailability in mouse at 25 mg/kg. The series is classed as ADME, organism-based. The conditions noted are these: in vivo.
Series [7] in a line: Lipophilicity, log D of the compound at pH 7.4. The note with it: buffer. The series is classed as physicochemical.
A short description of series [8]: Clearance in mouse at 0.3 mg/kg, iv. The class given is ADME, organism-based. The note with it: in vivo.
Series [9] in a line: Apparent permeability across apical to basolateral side of MDCK cells. The series is classed as ADME, cell-based, Canis lupus familiaris. The note with it: dog.
A short description of series [10]: as §1. The conditions noted are these: in vivo. The class given is ADME, organism-based.
Series [11] has as its target Epidermal growth factor receptor (Homo sapiens) (UniProt P00533). The note with it: 1 uM.
Description: Inhibition of recombinant human EGFR at 1 uM relative to control
Series [12] deals with Platelet-derived growth factor receptor alpha (Homo sapiens), P16234 [V561D]. The note with it: 1 uM.
Platelet-derived growth factor receptor alpha (Homo sapiens), P16234 [V561D], sequence (P16234 whole entry V561D): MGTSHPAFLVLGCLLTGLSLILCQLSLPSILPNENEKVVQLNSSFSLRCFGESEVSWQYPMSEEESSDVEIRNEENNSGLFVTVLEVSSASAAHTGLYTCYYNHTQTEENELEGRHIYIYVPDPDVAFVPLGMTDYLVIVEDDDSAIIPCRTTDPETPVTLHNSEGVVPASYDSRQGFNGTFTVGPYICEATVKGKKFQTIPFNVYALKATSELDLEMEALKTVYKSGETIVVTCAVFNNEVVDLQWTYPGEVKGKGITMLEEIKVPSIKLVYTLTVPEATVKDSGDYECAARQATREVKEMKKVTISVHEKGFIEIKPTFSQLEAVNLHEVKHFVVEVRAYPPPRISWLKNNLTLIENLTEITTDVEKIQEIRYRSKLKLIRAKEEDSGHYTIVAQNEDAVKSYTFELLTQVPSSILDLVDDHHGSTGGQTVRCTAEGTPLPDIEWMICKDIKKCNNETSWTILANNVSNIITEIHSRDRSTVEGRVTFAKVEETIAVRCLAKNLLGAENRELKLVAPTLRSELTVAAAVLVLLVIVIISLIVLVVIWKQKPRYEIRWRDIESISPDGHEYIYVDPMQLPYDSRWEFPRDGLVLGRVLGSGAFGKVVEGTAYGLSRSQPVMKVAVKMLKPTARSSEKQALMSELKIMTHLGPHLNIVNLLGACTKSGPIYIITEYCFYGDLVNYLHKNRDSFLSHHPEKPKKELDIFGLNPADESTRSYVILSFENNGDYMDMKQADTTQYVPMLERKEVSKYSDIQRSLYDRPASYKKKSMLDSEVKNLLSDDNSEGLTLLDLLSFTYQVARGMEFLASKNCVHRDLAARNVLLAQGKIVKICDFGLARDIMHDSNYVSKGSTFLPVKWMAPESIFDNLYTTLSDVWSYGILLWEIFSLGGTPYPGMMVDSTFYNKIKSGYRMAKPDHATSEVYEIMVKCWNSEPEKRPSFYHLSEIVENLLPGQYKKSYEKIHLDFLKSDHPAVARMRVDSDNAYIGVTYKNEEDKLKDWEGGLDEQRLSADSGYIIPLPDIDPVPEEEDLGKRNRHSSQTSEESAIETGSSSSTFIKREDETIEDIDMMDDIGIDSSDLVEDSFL
Description: Inhibition of recombinant human PDGFRalpha V561D mutant at 1 uM relative to control
For series [13], the target named is Cyclin-dependent kinase 1/cyclin B1 (Homo sapiens) (UniProt P06493+P14635). The conditions noted are these: 1 uM.
Description: Inhibition of recombinant human CDK1/cyclin B at 1 uM relative to control
The target in series [14] is Cyclin-dependent kinase 7/ cyclin H (Homo sapiens) (UniProt P51946+P50613). The conditions noted are these: 1 uM.
Description: Inhibition of recombinant human CDK7/cyclin H at 1 uM relative to control
The target in series [15] is Ribosomal protein S6 kinase alpha-2 (Homo sapiens) (UniProt Q15349). The note with it: 1 uM.
Description: Inhibition of recombinant human RSK3 at 1 uM relative to control
Series [16] has as its target Serine/threonine-protein kinase 3 (Homo sapiens) (UniProt Q13188). The conditions noted are these: 1 uM.
Description: Inhibition of recombinant human MST2 at 1 uM relative to control
For series [17], the target named is Protein kinase C delta type (Homo sapiens) (UniProt Q05655). The note with it: 1 uM.
Description: Inhibition of recombinant human PKCdelta at 1 uM relative to control
In series [18] the target is Mitogen-activated protein kinase kinase kinase kinase 5 (Homo sapiens) (UniProt Q9Y4K4). The conditions noted are these: 1 uM.
Description: Inhibition of recombinant human KHS1 at 1 uM relative to control
The target in series [19] is T1, Serine/threonine-protein kinase PAK 1. The conditions noted are these: 1 uM.
Description: Inhibition of recombinant human PAK1 at 1 uM relative to control
For series [20], the target named is Cyclin-dependent kinase 5/CDK5 activator 1 (Homo sapiens) (UniProt Q00535+Q15078). The conditions noted are these: 1 uM.
Description: Inhibition of recombinant human CDK5/p25 at 1 uM relative to control
Series [21] deals with Aurora kinase A (Homo sapiens) (UniProt O14965). The conditions noted are these: 1 uM.
Description: Inhibition of recombinant human Aurora A at 1 uM relative to control
In series [22] the target is Protein kinase C alpha type (Homo sapiens) (UniProt P17252). The conditions noted are these: 1 uM.
Description: Inhibition of recombinant human PKCalpha at 1 uM relative to control
For series [23], the target named is BDNF/NT-3 growth factors receptor (Homo sapiens) (UniProt Q16620). The note with it: 1 uM.
Description: Inhibition of recombinant human TrkB at 1 uM relative to control
Series [24] deals with Mitogen-activated protein kinase kinase kinase 9 (Homo sapiens) (UniProt P80192). The conditions noted are these: 1 uM.
Description: Inhibition of recombinant human MLK1 at 1 uM relative to control
The target of series [25] is High affinity nerve growth factor receptor (Homo sapiens) (UniProt P04629). The conditions noted are these: 1 uM.
Description: Inhibition of recombinant human TrkA at 1 uM relative to control
Series [26] has as its target Receptor-type tyrosine-protein kinase FLT3 (Homo sapiens) (UniProt P36888). The conditions noted are these: 1 uM.
Description: Inhibition of recombinant human FLT3 at 1 uM relative to control
The target of series [27] is T3, Serine/threonine-protein kinase PAK 4. The conditions noted are these: 1 uM.
Target sequence in this assay (O96013 whole entry, looked up): as the sequence (O96013 whole entry) above
Description: Inhibition of recombinant human PAK4 at 1 uM relative to control
For series [28], the target named is Vascular endothelial growth factor receptor 2 (Homo sapiens) (UniProt P35968). The note with it: 1 uM.
Description: Inhibition of recombinant human KDR at 1 uM relative to control
In series [29] the target is Myotonin-protein kinase (Homo sapiens) (UniProt Q09013). The note with it: 1 uM.
Myotonin-protein kinase (Homo sapiens), sequence (Q09013 whole entry): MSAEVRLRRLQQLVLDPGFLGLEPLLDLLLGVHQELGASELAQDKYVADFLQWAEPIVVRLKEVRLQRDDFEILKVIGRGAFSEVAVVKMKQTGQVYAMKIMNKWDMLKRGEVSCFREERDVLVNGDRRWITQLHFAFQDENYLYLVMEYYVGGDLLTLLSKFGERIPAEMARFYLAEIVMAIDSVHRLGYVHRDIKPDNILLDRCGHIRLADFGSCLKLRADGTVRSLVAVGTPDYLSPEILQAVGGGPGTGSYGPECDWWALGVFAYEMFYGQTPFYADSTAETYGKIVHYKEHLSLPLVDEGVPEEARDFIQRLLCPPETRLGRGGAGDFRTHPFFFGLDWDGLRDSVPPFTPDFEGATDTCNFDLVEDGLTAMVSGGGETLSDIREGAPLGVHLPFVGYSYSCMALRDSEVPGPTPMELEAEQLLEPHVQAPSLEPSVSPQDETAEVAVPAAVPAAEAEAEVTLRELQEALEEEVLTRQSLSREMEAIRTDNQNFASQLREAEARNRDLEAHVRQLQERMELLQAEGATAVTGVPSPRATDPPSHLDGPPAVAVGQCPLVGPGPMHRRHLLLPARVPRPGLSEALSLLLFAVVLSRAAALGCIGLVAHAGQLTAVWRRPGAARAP
Description: Inhibition of recombinant human DMPK at 1 uM relative to control
The target in series [30] is Serine/threonine-protein kinase 4 (Homo sapiens) (UniProt Q13043). The conditions noted are these: 1 uM.
Description: Inhibition of recombinant human MST1 at 1 uM relative to control
The target of series [31] is Proto-oncogene tyrosine-protein kinase Src (Homo sapiens) (UniProt P12931). The note with it: 1 uM.
Description: Inhibition of recombinant human Src at 1 uM relative to control
Series [32] has as its target Glycogen synthase kinase-3 alpha (Homo sapiens) (UniProt P49840). The conditions noted are these: 1 uM.
Description: Inhibition of GSK-3alpha (unknown origin) at 1 uM relative to control
The target in series [33] is Tyrosine-protein kinase JAK2 (Homo sapiens) (UniProt O60674). The conditions noted are these: 1 uM.
Description: Inhibition of recombinant human JAK2 at 1 uM relative to control

As usually defined, the pIC50 is the negative decadic logarithm of the IC50, by convention in mol/L. What is called pKi is −log10 of the Ki, conventionally taken in molar units. In general, inhibition refers to the share of the control response that was lost under treatment. The term AUC denotes the area under the concentration-time curve, a measure of exposure. Read a high AUC as high exposure. The bioavailability is the share of a dose that reaches the circulation, judged against a reference dose that is usually intravenous. Low values mean little systemic uptake, high ones much systemic uptake. One may read the logD as the decadic logarithm of the distribution of all forms, ionised or not, between an organic phase and buffer at a given pH. A lower logD goes with lower lipophilicity. In general, clearance refers to the volume of plasma or blood freed of the substance per unit of time. Higher therefore signals efficient removal. One may read the Papp A→B as the apparent permeability from the apical to the basolateral side of a cell layer.

pIC50, pKi: −log10 of the molar value.

T1 sequence (Q13153 whole entry): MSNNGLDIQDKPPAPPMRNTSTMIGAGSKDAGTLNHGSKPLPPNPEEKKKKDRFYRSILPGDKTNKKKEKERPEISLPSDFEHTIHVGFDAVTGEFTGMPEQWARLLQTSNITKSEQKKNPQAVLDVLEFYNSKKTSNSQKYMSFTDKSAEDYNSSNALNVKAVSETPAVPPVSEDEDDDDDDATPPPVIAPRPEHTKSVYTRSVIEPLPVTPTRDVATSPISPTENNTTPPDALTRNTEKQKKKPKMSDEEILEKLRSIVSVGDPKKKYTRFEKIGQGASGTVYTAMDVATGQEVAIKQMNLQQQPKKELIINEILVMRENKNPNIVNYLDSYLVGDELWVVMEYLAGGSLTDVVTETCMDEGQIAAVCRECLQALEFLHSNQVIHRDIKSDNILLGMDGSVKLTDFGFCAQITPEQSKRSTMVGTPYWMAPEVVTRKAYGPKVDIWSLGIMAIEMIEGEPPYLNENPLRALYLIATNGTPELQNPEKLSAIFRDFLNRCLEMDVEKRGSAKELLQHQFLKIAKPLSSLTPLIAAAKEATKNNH
Epidermal growth factor receptor (Homo sapiens), sequence (P00533 whole entry): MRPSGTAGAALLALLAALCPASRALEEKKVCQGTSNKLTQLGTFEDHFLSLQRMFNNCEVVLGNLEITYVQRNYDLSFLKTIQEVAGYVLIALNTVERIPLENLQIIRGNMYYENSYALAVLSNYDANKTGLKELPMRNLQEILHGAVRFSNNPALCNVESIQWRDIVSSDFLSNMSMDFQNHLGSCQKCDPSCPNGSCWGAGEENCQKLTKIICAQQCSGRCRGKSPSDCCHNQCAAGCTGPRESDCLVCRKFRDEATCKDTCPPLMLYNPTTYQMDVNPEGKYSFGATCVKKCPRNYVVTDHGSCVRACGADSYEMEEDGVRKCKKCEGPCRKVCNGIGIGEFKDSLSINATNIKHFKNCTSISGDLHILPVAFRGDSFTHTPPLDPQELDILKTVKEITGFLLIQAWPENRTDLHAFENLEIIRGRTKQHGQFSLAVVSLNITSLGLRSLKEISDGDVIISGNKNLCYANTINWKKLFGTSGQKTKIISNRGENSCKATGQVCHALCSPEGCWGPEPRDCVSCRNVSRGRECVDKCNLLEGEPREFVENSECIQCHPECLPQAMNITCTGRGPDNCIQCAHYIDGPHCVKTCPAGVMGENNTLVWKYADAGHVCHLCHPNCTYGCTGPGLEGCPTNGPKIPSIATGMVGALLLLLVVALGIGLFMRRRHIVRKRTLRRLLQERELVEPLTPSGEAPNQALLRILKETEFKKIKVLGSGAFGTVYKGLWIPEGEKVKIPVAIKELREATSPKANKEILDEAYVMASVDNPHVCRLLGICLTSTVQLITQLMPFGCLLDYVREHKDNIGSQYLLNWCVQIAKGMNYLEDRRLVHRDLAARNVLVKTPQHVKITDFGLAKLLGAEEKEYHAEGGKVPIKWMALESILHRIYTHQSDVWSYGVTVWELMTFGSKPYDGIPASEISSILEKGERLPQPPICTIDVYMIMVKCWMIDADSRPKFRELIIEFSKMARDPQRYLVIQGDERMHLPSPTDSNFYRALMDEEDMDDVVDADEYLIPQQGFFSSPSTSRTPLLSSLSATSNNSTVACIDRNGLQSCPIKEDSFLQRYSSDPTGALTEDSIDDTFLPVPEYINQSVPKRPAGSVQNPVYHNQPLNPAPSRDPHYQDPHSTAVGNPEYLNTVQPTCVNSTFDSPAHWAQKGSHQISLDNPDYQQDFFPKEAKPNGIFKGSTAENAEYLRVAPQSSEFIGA

Regarding `CCN(C[C@H]1CC[C@H](N)CC1)c1nccc(Nc2cc([C@H]3CCN(C)C3=O)[nH]n2)n1`, in series [1], the negative-log IC50 (pIC50) was less than 5.00. The negative logarithm of the Ki (pKi) at Aurora kinase A is less than 5.27; in series [3], 7.31; in series [5], 6.21. For the same compound, the inhibition in series [2] is less than 75%; in series [4] it was greater than 75%. For the same compound, the exposure (AUC) result in the series on Mus musculus was “BLD”. The compound further yielded a bioavailability in series [6] of less than 1%. This compound also had a logD in series [7] of 0.12. Moreover, the clearance in series [8] came to 33 mL/min/kg.

`CN(Cc1ccc2[nH]cnc2c1Cl)c1nccc(Nc2cc(C3CC3)[nH]n2)n1`: the pKi on Aurora kinase A was 8.52; in [3], 8.30; in series [5], 6.57.

In the case of `CN1CC[C@H](c2cc(Nc3ccnc(N(C)Cc4ccc5[nH]cnc5c4Cl)n3)n[nH]2)C1=O`, the pIC50 in series [1] was 5.11. In addition, the pKi was less than 5.27 on Aurora kinase A, 7.74 in [3] and 6.02 in [5]. The apparent permeability from apical to basolateral (Papp A→B) in [9] stood at 5 ×10⁻⁶ cm/s. Besides, the AUC in series [10] turned out to be 5.2 µM·h. The compound further gave a bioavailability in [6] of less than 1%. This compound also gave a logD in series [7] of 1.8. This compound displayed a clearance in series [8] of 7 mL/min/kg.

As to `Clc1c(CNc2nccc(Nc3cc(C4CCCO4)[nH]n3)n2)ccc2[nH]cnc12` (racemic), the pKi on Aurora kinase A is 7.60; in [3] it was 7.60; in [5], 5.89.

`CN1CCCC(c2cc(Nc3ccnc(N(C)C[C@H]4CC[C@H](N)CC4)n3)n[nH]2)C1=O` (mixture of isomers): the pKi is less than 5.27 at Aurora kinase A, 6.44 in [3] and 5.60 in [5].

On to `CN1CC[C@H](c2cc(Nc3ccnc(N(C)C[C@H]4CC[C@H](N)CC4)n3)n[nH]2)C1=O`, for which the pIC50 in series [1] was less than 5.00. Also, the pKi on Aurora kinase A is 5.46; in [3], 7.43; in series [5] it was 6.46. In series [6], this compound yielded a bioavailability of less than 1%. In series [7], this compound registered a logD of 0.96.

With `CC(=O)N(C)Cc1cc(Nc2ccnc(N(C)Cc3ccc4[nH]cnc4c3Cl)n2)n[nH]1`, the pKi at Aurora kinase A was 6.05; in series [3], 6.43; in series [5], less than 5.54.

`COCC(C)c1cc(Nc2ccnc(N(C)Cc3ccc4[nH]cnc4c3Cl)n2)n[nH]1` (stereo not drawn): the pKi at Aurora kinase A is 6.88; in series [3], 7.54; in series [5] it was 6.21.

Take `CN1CC(C)(C)C(c2cc(Nc3ccnc(N(C)C[C@H]4CC[C@H](N)CC4)n3)n[nH]2)C1=O` (stereo partly drawn): the figures for the pKi (on Aurora kinase A; in series [3]; in [5]) were less than 5.27, less than 5.35 and less than 5.54, respectively.

`CN1CC[C@H](c2cc(Nc3ccnc(NC[C@H]4CC[C@H](N)CC4)n3)n[nH]2)C1=O`: the results for the pKi (at Aurora kinase A; in series [3]; in [5]) were less than 5.27, 6.95 and 5.90, respectively.

For `CN1CC[C@@H](c2cc(Nc3ccnc(N(C)Cc4ccc5[nH]cnc5c4Cl)n3)n[nH]2)C1=O`, the results for the negative-log Ki (pKi) (at Aurora kinase A; in series [3]; in series [5]) were less than 5.27, 6.26 and less than 5.54, respectively.

For the compound `C[C@H]1CN(C)C(=O)[C@@H]1c1cc(Nc2ccnc(N(C)C[C@H]3CC[C@H](N)CC3)n2)n[nH]1`, the results for the pKi (at Aurora kinase A; in series [3]; in [5]) were less than 5.27, 7.34 and 5.99, respectively. Besides, the inhibition in series [11], in series [12], in series [2], in series [13], in [14] and in [15] was less than 75% each time. The inhibition in series [16] was less than 75%; in [17], less than 75%; in series [18] it was less than 75%; in series [4], greater than 75%; in [19] it was greater than 75%; in series [20], less than 75%. Also, the inhibition in series [21], in series [22], in series [23], in [24], in series [25] and in series [26] was less than 75% each time. Also, the inhibition in [27], in [28], in [29], in series [30], in series [31] and in [32] was less than 75% each time. For the same compound, in series [33], the inhibition was less than 75%.

With `CCN1CC[C@H](c2cc(Nc3ccnc(N(C)C[C@H]4CC[C@H](N)CC4)n3)n[nH]2)C1=O`, the pKi was less than 5.27 at Aurora kinase A, 7.74 in [3] and 6.09 in series [5].

For the compound `CN(Cc1ccc2[nH]cnc2c1Cl)c1nccc(Nc2cc(C3CCC(=O)C3)[nH]n2)n1` (racemic), the pKi is 7.77 at Aurora kinase A, 7.80 in [3] and 6.20 in [5].

The record behind these values is ChEMBL document CHEMBL3593241, “Leveraging the Pre-DFG Residue Thr-406 To Obtain High Kinase Selectivity in an Aminopyrazole-Type PAK1 Inhibitor Series” (ACS Med Chem Lett, 2015).
